{
  "source": "patent US4999372A",
  "about": "“New aminochromanol compounds” (ADIR et Compagnie, priority 1988, dated 1991)",
  "key": {"aorta of the rat [1]": {"system": "aorta of the rat", "test": "Relaxation of rat aortic rings contracted by potassium depolarisation (KCl)", "format": "cell-based", "conditions": "rat aorta rings without endothelium", "protocol": "(§1) Male Wistar rats (325-375 g) are anaesthetised i.p. using sodium pentobarbital (30 mg/kg). The thoracic aorta and the mesenteric portal vein are removed. The aorta is dissected into rings 3 mm long and the endothelium is removed mechanically.\n(§2) The organs are placed in a 20 ml thermostatically controlled vessel containing a physiological solution composed of (mM): NaCl 112; KCl 5; KH2 PO4 1; MgSO4 1.2; CaCl2 2.5; NaHCO3 25; glucose 11.5; EDTA 0.1; pH: 7.4; 37° C.; 95% O2 +5% CO2.\n(§3) The initial force applied is 2 g in the case of the aorta and 0.5 g in the case of the portal vein. The variations in force are measured by a STATHAM sensor connected to a transducer amplifier (GOULD) and are monitored continuously on a GOULD 2400 graphic recorder.\n(§4) The experimental protocols are as follows: After a stabilisation period of 90 minutes, the aortic rings are subjected to various tests:\npotassium depolarisation:\nThe preparations are exposed to a 30 mM or 80 mM KCl (and 87 and 37 mM NaCl, respectively) hyperpotassium medium; after 30 minutes' stabilisation of contraction, cumulative concentrations of the product to be tested are added every 15 minutes. The relaxation values obtained allow the IC50 s to be calculated.\n(§5) The products are used in a form dissolved in water or a suitable solvent.\n(§6) The concentrations expressed refer to the final concentrations in terms of base in the isolated organ baths."}, "anaesthetised dog": {"system": "anaesthetised dog", "test": "Haemodynamic study in the anaesthetised dog (vascular resistances), i.v.", "format": "in vivo", "conditions": "10 μg/kg", "protocol": "A complete haemodynamic study was carried out on mongrel dogs weighing from 25 to 30 kg, which were anaesthetised with sodium pentobarbital 30 mg/kg i.v., intubated and ventilated and subjected to a thoracotomy at the 5th left intercostal space. The measurement of the […] is carried out using electromagnetic rings positioned at the level of the ascending aorta and the circumflex branch of the left coronary artery, respectively, and connected to GOULD SP 2202 electromagnetic flow meters. The aortic pressure is measured by a MILLAR probe introduced via the femoral artery.\nThe total peripheral vascular resistance values (TPR) and the mean coronary vascular resistance values (CVRM) are calculated by the ratio between the mean aortic pressure and the mean cardiac output and the mean coronary output, respectively. The products tested were injected via the femoral vein in a form dissolved in water or a suitable solvent.\nThe evolution of the vascular resistances, expressed as percentage variation with respect to the control values, is presented as a function of time in the following Table."}, "guinea pig": {"system": "guinea pig", "test": "Bronchospasm produced by a histamine aerosol at 4%, compound i.v.", "format": "in vivo", "conditions": "0.30 mg/kg i.v.", "protocol": "The bronchodilating activity has been studied in the guinea pig by the method of H. KONZETT and R. ROSSLER, Arch. Exp. Path. U. Pharm. 195, 71 (1940).\nFor example, the bronchospasm produced in the guinea pig by a histamine aerosol et 4% is inhibited of 96% by the compound of Example 1 B form, at the dose of 0.30 mg/kg i.v., and of 100% by the compound of Example 24 B form, at the dose of 0.35 mg/kg i.v."}, "[2]": {"system": "conscious renally hypertensive dog", "test": "Arterial pressure in the conscious renally hypertensive dog", "format": "in vivo", "conditions": "gastric intubation, 0.1 mg/kg", "protocol": "Mongrel dogs weighing from 20 to 25 kg are used. A silastic catheter positioned under anaesthesia (sodium pentobarbital 30 mg/kg i.v.) at the level of the abdominal aorta and left over a prolonged period permits the later measurement of the arterial pressure in the conscious animals. Arterial hypertension is induced by a second intervention under anaesthesia consisting in a constriction of the left renal artery using a clip, which reduces its rate of flow by approximately 70%, the left kidney is enveloped in a latex capsule and the contralateral kidney is left in place.\nThe systolic and diastolic arterial pressures (PAS and PAD) are measured using a STATHAM P23 pressure sensor connected to the silastic catheter and linked to a GOULD pressure amplifier. The products are tested on the animals, which have become hypertensive, in the conscious state, at least one week after the second intervention. The arterial pressure is monitored continuously on an ES1000 GOULD recorder until 7 hours have elapsed after the treatment and then until 24 hours have elapsed.\nThe products to be tested are administered via the digestive system, after gastric intubation, in a form dissolved in water or a suitable solvent. The doses administered are expressed in mg of base with respect to body weight.\nThe representative products of the invention were compared with the reference product (CROMAKALIM). The variations in the systolic and diastolic arterial pressures (PAS and PAD), presented at the most significant times after treatment, are expressed as percentage variation with respect to the control values."}, "aorta of the rat [3]": {"system": "aorta of the rat", "test": "Reactivity of rat aortic rings to 4-aminopyridine (4 AP)", "format": "cell-based", "conditions": "4 AP 5 mM", "protocol": "as §1, §2, §3, §4\nreactivity to 4-aminopyridine (4 AP)\nThe product to be tested, at a given concentration, or its solvent, is incubated in the normal physiological solution 15 minutes before the addition of the 4 AP (5 mM).\nThe maximum amplitudes of the responses to the 4 AP in the presence of the product or the solvent are compared.\nas §5, §6"}, "[4]": {"system": "spontaneously hypertensive rat (SHR)", "test": "Arterial pressure in the conscious spontaneously hypertensive rat (SHR), oral", "format": "in vivo", "protocol": "The study is carried out on SHR male rats (Charles River) weighing from 260 g to 330 g and aged from 18 to 20 weeks. A polyethylene catheter is positioned at the level of the abdominal aorta and tunnelised at the level of the neck under anaesthesia (ketamine hydrochloride 150 mg/kg intraperitoneally). The animals, placed in movement-restraining cages, are tested in the conscious state at least 48 hours after intervention. The arterial pressure, measured by a STATHAM P23 pressure sensor connected to the abdominal catheter, is registered on a GOULD 2400 recorder. […] The doses administered are expressed in mg/kg of base.\nThe results obtained with a certain number of representative products of the invention and a reference product, CROMAKALIM, are grouped in the following Table. The variations in systolic and diastolic arterial pressure (PAS and PAD) presented at the most significant times after treatment are expressed as percentage variation with respect to the control values."}},
  "note": "Read-outs that look alike come from different tables or passages of the source.",
  "data": [
    {"smiles": "CC1(C)Oc2ccc(C#N)cc2C(N2C(=O)CC[C@H]2CO)C1O", "note": "(single isomer, unassigned) [Example 1 form B, 3R,4S- or 3S,4R-trans-2,2-dimethyl-3-hydroxy-4-(2-oxo-5S-hydroxymethyl-1-pyrrolidinyl)-6-cyanochroman]", "values": [
      {"measurement": "IC50", "setting": "aorta of the rat [1]; 30 mM KCl, listed as Ex. 1 Form B, read-out: IC50 (M) KCl 30 mM", "result": "3.4e-07", "unit": "M"},
      {"measurement": "IC50", "setting": "aorta of the rat [1]; 80 mM KCl, read-out: IC50 (M) KCl 80 mM", "result": "> 0.0001", "unit": "M"},
      {"measurement": "Variation (%) of CVRM after treatment", "setting": "anaesthetised dog; 1 min", "result": -69.4, "unit": "%"},
      {"measurement": "Variation (%) of TPR after treatment", "setting": "anaesthetised dog; 1 min", "result": -45.9, "unit": "%"},
      {"measurement": "Variation (%) of CVRM after treatment", "setting": "anaesthetised dog; 10 min", "result": -62.0, "unit": "%"},
      {"measurement": "Variation (%) of TPR after treatment", "setting": "anaesthetised dog; 10 min", "result": -35.1, "unit": "%"},
      {"measurement": "Variation (%) of CVRM after treatment", "setting": "anaesthetised dog; 30 min", "result": -43.7, "unit": "%"},
      {"measurement": "Variation (%) of TPR after treatment", "setting": "anaesthetised dog; 30 min", "result": -35.1, "unit": "%"},
      {"measurement": "Inhibition of the bronchospasm produced by a histamine aerosol at 4%", "setting": "guinea pig", "result": 96, "unit": "%"},
      {"measurement": "Variation (%) of PAD after treatment", "setting": "[2]; 1 H", "result": "+5%"},
      {"measurement": "Variation (%) of PAS after treatment", "setting": "[2]; 1 H", "result": "+2%"},
      {"measurement": "Variation (%) of PAD after treatment", "setting": "[2]; 3 H", "result": -50, "unit": "%"},
      {"measurement": "Variation (%) of PAS after treatment", "setting": "[2]; 3 H", "result": -55, "unit": "%"},
      {"measurement": "Variation (%) of PAD after treatment", "setting": "[2]; 7 H", "result": -68, "unit": "%"},
      {"measurement": "Variation (%) of PAS after treatment", "setting": "[2]; 7 H", "result": -76, "unit": "%"},
      {"measurement": "Variation (%) of PAD after treatment", "setting": "[2]; 24 H", "result": -27, "unit": "%"},
      {"measurement": "Variation (%) of PAS after treatment", "setting": "[2]; 24 H", "result": -24, "unit": "%"},
      {"measurement": "Variation (%) of PAD after treatment", "setting": "[2]; 30 min", "result": 0, "unit": "%"},
      {"measurement": "Variation (%) of PAS after treatment", "setting": "[2]; 30 min", "result": 0, "unit": "%"},
      {"measurement": "% inhibition of the response to 4AP", "setting": "aorta of the rat [3]; product 3 × 10^-6 M", "result": 18, "unit": "%"},
      {"measurement": "% inhibition of the response to 4AP", "setting": "aorta of the rat [3]; product 10^-5 M, listed as Ex. 1 Form B", "result": 77, "unit": "%"},
      {"measurement": "Variation (%) of PAD after treatment", "setting": "[4]; 0.3 mg/kg, 1 H", "result": "-36 ± 4", "unit": "%"},
      {"measurement": "Variation (%) of PAS after treatment", "setting": "[4]; 0.3 mg/kg, 1 H", "result": "-27 ± 4", "unit": "%"},
      {"measurement": "Variation (%) of PAD after treatment", "setting": "[4]; 0.3 mg/kg, 3 H", "result": "-35 ± 4", "unit": "%"},
      {"measurement": "Variation (%) of PAS after treatment", "setting": "[4]; 0.3 mg/kg, 3 H", "result": "-25 ± 3", "unit": "%"},
      {"measurement": "Variation (%) of PAD after treatment", "setting": "[4]; 0.3 mg/kg, 6 H", "result": "-40 ± 4", "unit": "%"},
      {"measurement": "Variation (%) of PAD after treatment", "setting": "[4]; 0.3 mg/kg, 30 min", "result": "-34 ± 6", "unit": "%"},
      {"measurement": "Variation (%) of PAS after treatment", "setting": "[4]; 0.3 mg/kg, 30 min", "result": "-27 ± 5", "unit": "%"},
      {"measurement": "Variation (%) of PAD after treatment", "setting": "[4]; 1.0 mg/kg, 1 H", "result": "-54 ± 2", "unit": "%"},
      {"measurement": "Variation (%) of PAS after treatment", "setting": "[4]; 1.0 mg/kg, 1 H", "result": "-44 ± 1", "unit": "%"},
      {"measurement": "Variation (%) of PAD after treatment", "setting": "[4]; 1.0 mg/kg, 3 H", "result": "-46 ± 6", "unit": "%"},
      {"measurement": "Variation (%) of PAS after treatment", "setting": "[4]; 1.0 mg/kg, 3 H", "result": "-40 ± 2", "unit": "%"},
      {"measurement": "Variation (%) of PAD after treatment", "setting": "[4]; 1.0 mg/kg, 6 H", "result": "-46 ± 4", "unit": "%"},
      {"measurement": "Variation (%) of PAS after treatment", "setting": "[4]; 1.0 mg/kg, 6 H", "result": "-36 ± 3", "unit": "%"},
      {"measurement": "Variation (%) of PAD after treatment", "setting": "[4]; 1.0 mg/kg, 30 min", "result": "-48 ± 5", "unit": "%"},
      {"measurement": "Variation (%) of PAS after treatment", "setting": "[4]; 1.0 mg/kg, 30 min", "result": "-42 ± 2", "unit": "%"}
    ]}
  ]
}
